The subject of one test is 4T1 cells. Kind of test: MTT assay. To be noted: Mus musculus, read-out: IC50, µM (M ± SD). It is filed as cell-based, murine. The procedure:
(§1) The MCF-7 and MDA-MB-231 cells were cultured in the DMEM medium containing 10% of the FBS, HCC1954, T-47D, and 4T1 cells in the RPMI-1640 medium with the addition of 10% of the FBS, and MCF-10A cells in MEGM Mammary Epithelial Cell Growth Medium BulletKit supplemented with penicillin/streptomycin cocktail and 5% of horse serum. The cells were cultured in a […] atmosphere at 5% CO2 and 37 °C. After trypsinization, cells were counted using a Scepter 3.0 handheld automated cell counter (Millipore, Burlington, MA, USA).
(§2) The MTT test was used to assess the metabolic activity of cells treated with the investigated substances following the Sigma-Aldrich manufacturer’s instructions. Briefly, compounds were added in 100 µL of the cultural medium, and cells were incubated for the next 24 and 48 h. Doxorubicin was used as a reference drug. The DMSO was added to dissolve the crystals of formazan. We used the ThermoScientific Evolution 201 UV–VIS spectrophotometer (ThermoFisher Scientific, Waltham, MA, USA) to measure the absorbance of formazan at 570 nm. The initial value of the relative number of cells in control (under 0.1% of the DMSO) was accepted as 100%. We used GraphPad Prism Version 9 to calculate the half-maximal inhibition concentration (IC50) of the studied compounds (the concentration of the drug that reduced cell viability by 50%).
For orientation: Tetrazolium dyes change colour on reduction, which living cells bring about.

Test [1] concerns HCC1954 cells. Kind of test: MTT assay. The test is classed as cell-based. To be noted: Homo sapiens, read-out: IC50, µM (M ± SD). The procedure: as §1, §2
For test [2], the system named is MCF-7 cells. Description: MTT assay. It is filed as cell-based. The conditions noted are these: Homo sapiens, read-out: IC50, µM (M ± SD). The method, then:
as §1, §2

Test [3] relates to MDA-MB-231 cells. Kind of test: MTT assay. It is filed as cell-based. The conditions noted are these: Homo sapiens, read-out: IC50, µM (M ± SD). The method, then: as §1, §2
In another test the test system is T-47D cells. Kind of test: MTT assay. It is filed as cell-based. The conditions noted are these: Homo sapiens, T47D, read-out: IC50, µM (M ± SD). The procedure: as §1, §2
Test [4] concerns MCF-7 cells. Description: Clonogenic assay. To be noted: for IC50: Homo sapiens, MCF7, MCF-7, 72 h exposure, 14 days culture, read-out: IC50 (M ± SD) in clonogenic assay. The test is classed as cell-based, human. The procedure: The clonogenic assay was carried out utilizing the previously published methodology. The MCF-7, MDA-MB-231, HCC1954, and MCF-10A cells (500 cells/2 mL) were seeded in a 12-well plate overnight. Afterward, studied derivatives or doxorubicin (1, 2.5, 5, 10, and 50 µM) were added to cells. The media was changed after 72 h to a compound-free one, and the cells were cultured for the following 14 days. Then, the cells were washed, fixed, and stained with 0.1% crystal violet. After washing, the plates were dried at room temperature. The colonies were recorded by ImageJ software (Version 1.30). The value of colonies in control (non-treated cells) was accepted as 100%. The effect of compounds on the colony-forming ability of cells was expressed as the percentage of colonies compared to the control.

Test [5] has as its system HCC1954 cells. Kind of test: [3H]-thymidine incorporation assay. The test is classed as cell-based. The conditions noted are these: Homo sapiens; HCC1954, 24 h; read-out: IC50 (M ± SD) in [3H]-thymidine assay (DNA synthesis). The method, then:
(§3) Following a 24 h cell treatment, the incorporation of [^3H]-thymidine into the DNA of the breast tumor and normal cells was used to measure the antiproliferative activity of Les-6287. The MCF-7, MDA-MB-231, HCC1954, and MCF-10A cells were seeded into six-well plates (density 3 × 10^5 cells/well) and cultured for 24 h. Then, they were incubated under the same conditions for the next 24 h with a growth medium containing the tested compounds and reference drug (doxorubicin) at different concentrations (1, 2.5, 5, 10, 50 µM). After 24 h, the medium was changed to a fresh one without FBS. A total of 0.5 µCi of tritium-labeled thymidine (specific activity: 7 Ci/mmol) was added to cells for 4 h. The cells were washed with 1 mL of 0.05 M Tris-HCl buffer pH 7.4 containing 0.11 M NaCl and 1 mL of 5% trichloroacetic acid (TCA). Each well was filled with 1 mL of a 0.1 M NaOH solution containing 1% SDS to complete cell lysis. After 5 min, the acquired cell lysates were put into scintillation vials and pre-filled with two milliliters of scintillation liquid. The Scintillation Counter 1900 TR, TRI-CARB (Packard, Perkin Elmer, Inc., San Jose, CA, USA) was used to record the results. The effect of compounds on DNA synthesis was expressed as % of the control (non-treated cells).
Background: Incorporation of labelled thymidine or its analogues reports DNA synthesis.

The test system of the next test is MCF-10A cells. Kind of test: [3H]-thymidine incorporation assay. To be noted: Homo sapiens, 24 h, read-out: IC50 (M ± SD) in [3H]-thymidine assay (DNA synthesis). The test is classed as cell-based. The procedure: as §3
The subject of test [6] is MCF-7 cells. Description: [3H]-thymidine incorporation assay. It is filed as cell-based. The conditions noted are these: Homo sapiens, MCF7; MCF-7, 24 h; read-out: IC50 (M ± SD) in [3H]-thymidine assay (DNA synthesis). The method, then:
as §3

For test [7], the system named is MDA-MB-231 cells. Description: [3H]-thymidine incorporation assay. The conditions noted are these: Homo sapiens; MDA-MB-231, 24 h; read-out: IC50 (M ± SD) in [3H]-thymidine assay (DNA synthesis). It is filed as cell-based. The procedure: as §3
A further test has as its system MMP-2 in MCF-7 cells. Kind of test: MMP-2 ELISA in culture supernatants. The test is classed as cell-based, human. The conditions noted are these: MCF-7, 24 h, control 610.57 pg/mL. The procedure: (§4) In order to determine the Beclin-1 concentration in the cell lysates, the SimpleStep ELISA (Abcam, Cambridge, UK) Kit was used. MMP-2, MMP-9, and ICAM-1 concentrations were measured in culture supernatants using high-sensitivity human SimpleStep ELISA kits (Abcam, Cambridge, UK) according to the manufacturer’s protocols. The LC3B ELISA kit (BT LAB, Shanghai, China) was used to check the protein concentration in cell lysates from analyzed breast cancer cells. The procedure for preparing the samples was shown previously.
On the technique in general: In an ELISA, binding on a coated surface is turned into a signal by an enzyme label.

Test [8] relates to MMP-2 in MDA-MB-231 cells. Description: MMP-2 ELISA in culture supernatants. The conditions noted are these: MDA-MB-231, 24 h, 2 μM; control 1055.21 pg/mL. The test is classed as cell-based, human. The procedure:
as §4

The subject of test [9] is MMP-9 in MDA-MB-231 cells. Kind of test: MMP-9 ELISA in culture supernatants. The test is classed as cell-based, human. To be noted: MDA-MB-231, 24 h, all examined doses. The method, then:
as §4

SMILES strings stand for the structures. Where two headings read alike, the source gives them in different places.

As a reminder, the IC50 is the concentration that gives 50% inhibition.

As to `COc1cccc2c1C(=O)c1c(O)c3c(c(O)c1C2=O)C[C@@](O)(C(=O)CO)C[C@@H]3O[C@H]1C[C@H](N)[C@H](O)[C@H](C)O1` [Dox, doxorubicin, reference compound], the concentration for half-maximal inhibition (IC50) amounted to 2.37 ± 0.25 µM with 4T1 cells (4T1, 24 h); 1.98 ± 0.21 µM in the test on 4T1 cells (4T1, 48 h); 1.9 ± 0.11 µM in the test with HCC1954 cells [1] (HCC1954, 24 h); 1.15 ± 0.16 µM with HCC1954 cells [1] (HCC1954, 48 h); 3.47 ± 0.49 µM in the test on MCF-7 cells [2] (MCF7, MCF-7, 24 h); 0.18 ± 0.07 µM in the test on MCF-7 cells [2] (MCF7, MCF-7, 48 h). In addition, the half-maximal inhibitory concentration (IC50) in the test with MDA-MB-231 cells [3] (MDA-MB-231, 24 h) turned out to be 6.18 ± 0.08 µM; in the test with MDA-MB-231 cells [3] (MDA-MB-231, 48 h) it was 1.09 ± 0.09 µM; with T-47D cells (24 h), 3.66 ± 0.33 µM; in the test with T-47D cells (48 h), 2.31 ± 0.24 µM; in the test on MCF-7 cells [4], 0.42 ± 0.08 µM; in the test on HCC1954 cells [5] it was 1.07 ± 0.04 µM. Besides, the IC50 in the test with MCF-10A cells is 3.19 ± 0.43 µM; with MCF-7 cells [6], 0.66 ± 0.13 µM; in the test with MDA-MB-231 cells [7], 0.63 ± 0.11 µM. Besides, the “concentration of MMP-2” value came out at 425.40 pg/mL in the test with MMP-2 in MCF-7 cells (2 μM) and 470.57 pg/mL in test [8]. Also, in test [9], the “MMP-9 concentration versus control” value is “decreased”.
In the case of `O=C1CC(N2C(=O)C(=CC(Cl)=Cc3ccc([N+](=O)[O-])cc3)SC2=S)C(=O)N1c1ccc(O)cc1` (stereo not shown) [Les-6287, 1-(4-hydroxyphenyl)-3-[5-[2-chloro-3-(4-nitrophenyl)prop-2-enylidene]-4-oxo-2-thioxothiazolidine-3-yl]pyrrolidine-2,5-dione], the IC50 in the test on 4T1 cells (4T1, 24 h) came to 1.6 ± 0.14 µM; with 4T1 cells (4T1, 48 h) it was 1.62 ± 0.21 µM; in the test with HCC1954 cells [1] (HCC1954, 24 h) it was 2.52 ± 0.65 µM; in the test with HCC1954 cells [1] (HCC1954, 48 h) it was 2.25 ± 0.64 µM; in the test with MCF-7 cells [2] (MCF7, MCF-7, 24 h), 2.34 ± 0.16 µM; in the test with MCF-7 cells [2] (MCF7, MCF-7, 48 h), 1.43 ± 0.18 µM. Besides, the 50% inhibitory concentration (IC50) in the test on MDA-MB-231 cells [3] (MDA-MB-231, 24 h) came to 3.86 ± 0.24 µM; in the test with MDA-MB-231 cells [3] (MDA-MB-231, 48 h), 1.37 ± 0.15 µM; in the test on T-47D cells (24 h), 3.11 ± 0.19 µM; with T-47D cells (48 h), 1.74 ± 0.25 µM; in the test with MCF-7 cells [4] it was 0.42 ± 0.08 µM; in the test with HCC1954 cells [5], 3.67 ± 0.09 µM. Besides, the IC50 was found to be 43.5 ± 1.16 µM in the test on MCF-10A cells, 2.37 ± 0.02 µM in the test with MCF-7 cells [6] and 2.32 ± 0.04 µM in the test on MDA-MB-231 cells [7]. For the same compound, the formation of colonies entry with MCF-7 cells [4] (MCF-7, compound at 1 µM) is listed as “totally inhibited”. Further, the “concentration of MMP-2” value in the test with MMP-2 in MCF-7 cells (compound concentration not stated (most significant decrease)) is listed as 395.91 pg/mL; in test [8], 711.74 pg/mL. Also, the “MMP-9 concentration versus control” value in test [9] was “decreased”.

(Values after article PMC11352273, “The Proapoptotic Action of Pyrrolidinedione–Thiazolidinone Hybrids towards Human Breast Carcinoma Cells Does Not Depend on Their Genotype” (Cancers, 2024).)
